Source: paper PMC9138545, “Incorporation of Oxidized Phenylalanine Derivatives into Insulin Signaling Relevant Proteins May Link Oxidative Stress to Signaling Conditions Underlying Chronic Insulin Resistance” (Biomedicines, 2022)

Tests used:
3T3-L1 adipocytes [1] = test: Isotope glucose uptake (deoxy-D-glucose 2-[1 2-3H(N)]) in differentiated 3T3-L1 adipocytes; type: cell-based, mouse; conditions: for insulin-induced glucose uptake, time dependence: 200 nmol/L insulin, cells grown 1, 2, 3, 4, 5 or 12 days with p-, n = 5–8; for insulin-induced glucose uptake, time dependence / insulin-induced glucose uptake, 5 mmol/L glucose: m- or o-Tyr; for insulin-induced glucose uptake, 5 mmol/L glucose: 2, 20, 200, 400 nmol/L insulin, medium with p-; for non-stimulated (basal) glucose uptake: no insulin, cells grown 1-12 days with m- or o-Tyr, vs. p-Tyr control
Procedure: (§1) Early passages of mouse embryo fibroblast (3T3-L1) (ATCC, Manassas, VA, US) were cultured in Dulbecco’s modified Eagle medium (DMEM, Sigma Aldrich, Budapest, Hungary, CAT number: D6046; Invitrogen, Waltham, MA, USA, CAT number: 41966-029) supplemented with 100 U/mL penicillin, 0.1 mg/mL streptomycin (Gibco, Budapest, Hungary, CAT number: 15070-063) and 10% heat-inactivated Fetal Bovine Serum (FBS, Gibco, CAT number: 16170-078), supplemented with 398 nM p-, m-, or o-Tyr (equimolar to the original p-Tyr content of the medium) purchased from Sigma (CAT number: para-Tyr: T8566, m-Tyr: T3629, o-Tyr: 93851). Media contained 25 or 5 mmol/L glucose (experiment dependent) pyruvate and L-glutamine. Cells were grown at 37 °C and 5% CO2. Adipocyte differentiation was achieved by DMEM supplemented with 10% FBS (Gibco, Csertex, Budapest, Hungary, CAT number: 10106-169) (FBS) and a […] insulin (Sigma Aldrich, Budapest, Hungary, CAT number: I 9278), […] isobuthylmethylxanthine (Sigma Aldrich, Budapest, Hungary, CAT number: I 5879), and 250 nmol/L dexamethasone (Sigma Aldrich, Budapest, Hungary, CAT number: 861871) containing cocktail. From day 4 onward, cultures were maintained in DMEM containing 1.5 μg/mL insulin and 10% FBS with a medium change every other day until experimental treatments were started. After 90% of the cell population reached the adipocyte phenotype, prior to all treatments, cells were incubated overnight in serum-deprived medium. Experimental treatment was performed in serum-deprived medium containing 200 or 400 nmol/L insulin, for 5 min.
Initially, cells were kept in glucose-free DMEM (Gibco, Csertex, Budapest, Hungary) for 30 min and then were treated with 2, 20, 200, or 400 nmol/L insulin for 100 min. Concurrently, 1 μCi/mL deoxy-D-glucose 2-[1 2-3H(N)] (3.7 × 104 Bq/mL) (Izotóp Intézet, Budapest, Hungary) was added to the plates for 100 min. After scraping the cells into the medium, they were centrifuged for 5 min at 1000 rpm. We dissolved the sediment in 70 μL of lysis buffer, then glucose uptake was determined by scintillation counting by measuring 30 μL of the sample, using a Beckman LS 5000 TD counter, in counts per minute (CPM), for five minutes each, with average activity was used as the outcome. Following freezing overnight at −70 °C, protein concentration was measured with a Hitachi spectrophotometer. Results were normalized for protein content.

IRS-1 (Tyr612) = test: Western blot, activating phosphorylation of IRS-1 (Tyr612); type: cell-based; conditions: n = 4–8; for insulin-induced IRS-1 phosphorylation: 400 nmol/L insulin, adipocytes, HEK cells, podocytes, macrophages; for basal IRS-1 phosphorylation: without insulin, cells grown on o- or m-Tyr medium
Procedure: as §1
The conditionally immortalized human podocyte cell line (provided by Moin Saleem, University of Bristol, UK) was cultured in RPMI1640 medium (R8756, Sigma Aldrich, Budapest, Hungary) supplemented with 10% heat-inactivated FBS (16170-078, Gibco, Budapest, Hungary), insulin-transferrin-selenium supplement (41400-045, Gibco), 100 U/mL penicillin, 0.1 mg/mL streptomycin (P4333, Sigma), and […] (equimolar to the original p-Tyr content of the medium) para-, meta-, or ortho-Tyr. The cells were grown at 33 °C 5% CO2, and when they reached 40–60% confluency they were transferred to 37 °C to differentiate. Following the thermoswitching, cells were kept on RPMI1640 medium containing 2% FBS, antibiotics, and different tyrosines. Before every treatment, cells were incubated in serum-deprived medium overnight.
HEK-293 immortalized cell line (ATCC, Manassas, VA, USA) of epithelial morphology and the J774A.1 mouse BALB/C monocyte-macrophage cell lines (91051511-1VL, Sigma Aldrich, Budapest, Hungary) were cultured in Petri dishes with a medium composed of Dulbecco’s modified Eagle’s medium (DMEM, Sigma Aldrich, Budapest, Hungary, CAT number: D6046, Invitrogen, CAT number: 41966-029), with a 10% heat-inactivated FBS supplementation (16170-078, Gibco), insulin-transferrin-selenium supplement (41400-045, Gibco, Budapest, Hungary,), 100 U/mL penicillin and 0.1 mg/mL streptomycin (P4333, Sigma) and 398 nM para (5 and 25 mmol/L), meta-, or ortho-Tyr (T8566, T3629, 93851, Sigma). Before treatment, cells were incubated in serum-deprived medium overnight as well. […]
The samples of lysates were vortexed and centrifuged (10 min, 13,000 rpm, at 4 °C). Protein content of the samples was determined by the Lowry method using bovine serum albumin as a standard. […]

3T3-L1 adipocytes [2] = test: HPLC of non-protein-bound intracellular tyrosines; type: cell-based, mouse; conditions: for cellular uptake of amino acids (non-protein-bound intracellular content): 5 or 25 mmol/L glucose, with or without 400 nmol/L insulin; for uptake by fat cells: time-dependent incubation
Procedure: as §1
To measure the total intracellular non-protein-bound tyrosine concentration, prior to the freezing of samples overnight at −70 °C to achieve cell lysis, 200 μL distilled water was added to each. After melting up, samples were centrifuged for 15 min at 15,000 rpm. A total of 200 µL of the supernatant was mixed with 200 µL of 60% trichloroacetic acid. After 30 min incubation on ice, samples were centrifuged again at 15,000 rpm for 15 min. Then, the supernatant was filtered and was diluted 5-fold and then 160 µL distilled water was added to 40 µL of filtrate, followed by the injection of the mixture onto the HPLC column.
The amounts of p-, o-, m-Tyr and Phe in the samples were determined by measuring their autofluorescence. Thus, no derivatization or staining was needed. Samples were measured on a Shimadzu Class 10 HPLC system equipped with an RF-10 AXL fluorescent detector (Shimadzu USA Manufacturing Inc., Canby, OR, USA). The mobile phase consisted of 1% sodium acetate and 1% acetic acid dissolved in water. The separation took place on a LiChroCHART 250-4 column (Merck KGaA, Darmstadt 64271, Germany) in an isocratic run. Wavelengths of 275 nm for excitation and 305 nm for emission were used to assess p-, o- and m-Tyr, while Phe was detected at 258 nm excitation and 288 nm emission wavelengths. Determination of the area under the curve (AUC) plus external standard calibration was used to calculate the precise concentrations of the amino acids.

SMILES | insulin-induced glucose uptake, time dependence (3T3-L1 adipocytes [1]) | insulin-induced glucose uptake, 5 mmol/L glucose (3T3-L1 adipocytes [1]) | non-stimulated (basal) glucose uptake (3T3-L1 adipocytes [1]) | insulin-induced IRS-1 phosphorylation (IRS-1 (Tyr612)) | basal IRS-1 phosphorylation (IRS-1 (Tyr612)) | cellular uptake of amino acids (non-protein-bound intracellular content) (3T3-L1 adipocytes [2]) | uptake by fat cells (3T3-L1 adipocytes [2])
N[C@@H](Cc1cccc(O)c1)C(=O)O [m-Tyr, meta-tyrosine] | no significant effect | failed to induce the glucose uptake | lower than that of the p-Tyr control | could not be further raised by insulin treatment | either unchanged or higher | continuous uptake of amino acids which was independent of glucose concentration (5 or 25 mmol/L) and the presence of insulin | Taken Up by Fat Cells within Several Minutes
NC(Cc1ccccc1O)C(=O)O (centres unmarked) [o-Tyr, ortho-tyrosine] | no significant effect | failed to induce the glucose uptake | lower than that of the p-Tyr control | could not be further raised by insulin treatment | either unchanged or higher | continuous uptake of amino acids which was independent of glucose concentration (5 or 25 mmol/L) and the presence of insulin | Taken Up by Fat Cells within Several Minutes
